The source of these data is US10143691B2, “Pathogenic control of apoptosis” (CSIR, priority 2014, dated 2018).

“Also recorded” adds a separate entry of the source. Like-named read-outs stand apart in the source and are kept apart here.

Assay type in all cases: cell-based
The subject of one assay is Ghost(3) cells. The procedure: Apoptosis was measured in Ghost(3) cells 30 hours post-infection or drug treatment using the NucView™ 488 Caspase3 Assay Kit (Biotium) in a 96 well format. Data was analysed in MATLAB using a probabilistic region method to measure cell attachment and expressed as percentage cell survival. […] An average of 3000 cells per condition were analysed with the exception of cells treated with Doxorubicin followed by HIV-infection (FIG. 3), cells transfected with lincRNAp21 overexpression constructs followed by Doxorubicin treatment, and cells transfected with full-length lincRNAp21, infected with HIV1 and treated with Nutlin3 (FIG. 25). These latter conditions ( ? ) yielded too few attached cells (<20) at 30 hours for similar analysis.
Apoptosis was measured in Ghost(3) cells 30 hours post-infection or drug treatment using the NucView™ 488 Caspase-3 Assay Kit (Biotium) in a 96 well format. Data was analysed in MATLAB using a probabilistic region method to measure cell attachment and expressed as percentage cell survival. […] An average of 3000 cells per condition were analysed with the exception of cells treated with Doxorubicin followed by HIV-infection (FIG. 27), cells transfected with lincRNA-p21 overexpression constructs followed by Doxorubicin treatment (FIG. 36), and cells transfected with full-length lincRNA-p21, infected with HIV-1 and treated with Nutlin3 (FIG. 45). These latter conditions ( ? ) yielded too few attached cells (<20) at 30 hours for similar analysis.

The subject of the next assay is ATMpSer1981. Description: Immunofluorescence staining of activated ATM (ATMpSer1981). The settings on record: Ghost(3) cells, Doxorubicin 500 nM, no HIV. The method, then:
(§1) For each experiment, Ghost(3) cells or IPSC-derived primary macrophages were infected or treated with 500 nM Doxorubicin on coverslips, fixed for 10 mins in fresh 4% paraformaldehyde at room temperature, then washed 3 times in PBS and permeabilised for 10 mins in ice-cold methanol at […]. Coverslips were washed once in PBS and incubated in blocking buffer (5% goat serum, 0.3% TritonX100 in PBS) for 60 mins at room temperature. Cells were incubated in primary antibody solution (1% BSA, 0.3% Triton X100 in PBS) overnight at 4° C. Double strand breaks were detected using rabbit polyclonal anti-phosphohistone H2A.X Ser139 (Cell Signaling). Activated ATM was detected using rabbit monoclonal anti-phosphoATM Ser1981 (Cell Signaling). The ability of p53 to regulate apoptosis was detected using rabbit polyclonal antiphosphop53 Ser46 (Cell Signaling). Viral p24 was detected using mouse monoclonal anti-HIV1p24 (AIDS Research and Reference Reagent Program, Division of AIDS, NIAID, NIH). HuR was detected using mouse monoclonal anti-HuR 3A2 (Santa Cruz Biotechnology). hnRNPK was detected using goat polyclonal anti-hnRNPK P20 (Santa Cruz Biotechnology). Coverslips were washed 3 times (5 mins each on an orbital shaker) with wash buffer (0.05% Tween20 in PBS), followed by incubation with secondary antibodies conjugated to either Atto550 or Atto565 or Atto647 for 60 mins at room temperature. […]

The next assay concerns HuR. Kind of assay: Immunofluorescence of HuR cellular location in Ghost(3) cells. Conditions: Ghost(3) cells, Doxorubicin-treated, no HIV. The procedure:
as §1, with “Biotechnology).” for “Biotechnology). Coverslips were washed 3 times (5 mins each on an orbital shaker) with wash buffer (0.05% Tween20 in PBS), followed by incubation with secondary antibodies conjugated to either Atto550 or Atto565 or Atto647 for 60 mins at room temperature.”
For each experiment, cells were infected or treated with drugs on coverslips, fixed for 10 mins in fresh 4% paraformaldehyde at room temperature, then washed 3 times in PBS and permeabilised for 10 mins in ice-cold methanol at −20° C. […] Double strand breaks were detected using rabbit polyclonal anti-phospho-histone H2A.X Ser139 (Cell Signaling). Activated ATM was detected using rabbit monoclonal anti-phospho-ATM Ser1981 (Cell Signaling). The ability of p53 to regulate apoptosis was detected using rabbit polyclonal anti-phospho-p53 Ser46 (Cell Signaling). Viral p24 was detected using mouse monoclonal anti-HIV-1-p24 (AIDS Research and Reference Reagent Program, Division of AIDS, NIAID, NIH). HuR was detected using mouse monoclonal anti-HuR 3A2 (Santa Cruz Biotechnology). hnRNP-K was detected using goat polyclonal anti-hnRNP-K P-20 (Santa Cruz Biotechnology). […]

A further assay concerns hnRNP-K. Kind of assay: Immunofluorescence of hnRNP-K cellular location in iPSC-derived macrophages. The settings on record: iPSC-derived (primary) macrophages, Doxorubicin-treated, no HIV. The method, then:
as §1

As for `COc1cccc2c1C(=O)c1c(O)c3c(c(O)c1C2=O)C[C@@](O)(C(=O)CO)C[C@@H]3O[C@H]1C[C@H](N)[C@H](O)[C@H](C)O1` [Doxorubicin], the percentage cell survival in the assay with Ghost(3) cells (Ghost(3) cells infected with HIV-1 24 hours before the same duration of Doxorubicin treatment) amounted to 60%; in the assay on Ghost(3) cells (Ghost(3) cells, Doxorubicin only (lethal dose), no HIV) it was 32%. In addition, the apoptosis result is “do not undergo apoptosis” in the assay with Ghost(3) cells (Ghost(3) cells infected with HIV-1 24 hours prior to Doxorubicin treatment); “underwent apoptosis; also recorded: do undergo apoptosis” with Ghost(3) cells (Ghost(3) cells that received Doxorubicin prior to HIV-1 infection); “the cells underwent apoptosis” in the assay on Ghost(3) cells (cells concurrently infected and treated with Maraviroc, Tenofovir or Raltegravir, Doxorubicin added 24 hours later); “apoptosis at 48 hours; also recorded: by 24 hours, cells were apoptotic; also recorded: followed by apoptosis” in the assay on Ghost(3) cells (uninfected Ghost(3) cells, lethal dose of Doxorubicin (500 nM)). In addition, the “phosphorylation of ATM at Ser1981” value in the assay with ATMpSer1981 is “phosphorylation of both ATMpSer1981 and p53pSer46 in the nucleus within 8 hours; also recorded: Phosphorylated ATM is detected”. In the assay with HuR, the “cellular location of HuR” value is reported as “cytoplasmic HuR within 8 hours; also recorded: moved from the nucleus into the cytoplasm within 8 hours of treatment”. Moreover, the “cellular location of hnRNP-K” value in the assay with hnRNP-K is listed as “nuclear hnRNP-K within 8 hours; also recorded: nuclear hnRNPK within 8 hours”.
